Data: the kinase profiling compilation of Christmann-Franck et al. (2016)

Experiments:
Assay in all cases: KINOMEscan competition binding
Conditions in all cases: compound 10.0 µM
NTRK2 (human) = NTRK2 (human) (UniProt Q16620)
EPHA5 (human) = EPHA5 (human) (UniProt P54756)
RPS6KA6 KD2 (human) = RPS6KA6 KD2 (human) (UniProt Q9UK32)
[1] = test system: KIT (human), P10721 [V559D/V654A]
PRKCQ (human) = PRKCQ (human) (UniProt Q04759)
MYLK3 (human) = MYLK3 (human) (UniProt Q32MK0)
CLK3 (human) = CLK3 (human) (UniProt P49761)
Chain of CLK3 (human) (P49761 whole entry, looked up): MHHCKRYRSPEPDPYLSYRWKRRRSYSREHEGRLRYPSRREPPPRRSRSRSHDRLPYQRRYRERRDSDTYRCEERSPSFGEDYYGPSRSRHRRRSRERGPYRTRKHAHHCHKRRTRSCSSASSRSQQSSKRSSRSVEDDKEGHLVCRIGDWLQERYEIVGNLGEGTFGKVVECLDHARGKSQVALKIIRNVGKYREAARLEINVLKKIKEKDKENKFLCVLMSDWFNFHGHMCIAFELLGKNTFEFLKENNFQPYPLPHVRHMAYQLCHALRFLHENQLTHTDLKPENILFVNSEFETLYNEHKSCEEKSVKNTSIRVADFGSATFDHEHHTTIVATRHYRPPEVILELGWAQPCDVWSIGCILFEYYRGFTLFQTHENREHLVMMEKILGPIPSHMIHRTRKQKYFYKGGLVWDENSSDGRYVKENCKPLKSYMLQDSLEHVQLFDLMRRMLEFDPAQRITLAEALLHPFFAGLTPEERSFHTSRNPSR

MARK1 (human) = MARK1 (human) (UniProt Q9P0L2)
PTK2B (human) = PTK2B (human) (UniProt Q14289)
MYO3A (human) = MYO3A (human) (UniProt Q8NEV4)
NEK1 (human) = NEK1 (human) (UniProt Q96PY6)
PIM3 (human) = PIM3 (human) (UniProt Q86V86)
CAMK2A (human) = CAMK2A (human) (UniProt Q9UQM7)
Chain of CAMK2A (human) (Q9UQM7 whole entry, looked up): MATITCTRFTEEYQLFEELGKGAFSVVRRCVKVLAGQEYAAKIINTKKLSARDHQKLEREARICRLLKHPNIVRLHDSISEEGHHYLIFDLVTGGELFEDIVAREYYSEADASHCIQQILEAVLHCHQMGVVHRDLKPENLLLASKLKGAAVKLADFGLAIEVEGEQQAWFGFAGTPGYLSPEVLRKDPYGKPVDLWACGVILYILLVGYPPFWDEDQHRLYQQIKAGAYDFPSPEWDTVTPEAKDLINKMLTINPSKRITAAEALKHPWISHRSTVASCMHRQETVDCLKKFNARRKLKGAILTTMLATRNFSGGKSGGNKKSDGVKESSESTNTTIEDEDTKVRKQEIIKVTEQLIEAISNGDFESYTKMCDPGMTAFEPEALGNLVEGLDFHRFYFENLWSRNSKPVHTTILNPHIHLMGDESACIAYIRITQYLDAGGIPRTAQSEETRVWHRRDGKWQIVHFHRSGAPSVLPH

STK32B (human) = STK32B (human) (UniProt Q9NY57)
PRKACA (human) = PRKACA (human) (UniProt P17612)
[2] = target: JAK2 JH1 catalytic (human) (UniProt O60674)
Chain of JAK2 JH1 catalytic (human) (O60674 whole entry, looked up): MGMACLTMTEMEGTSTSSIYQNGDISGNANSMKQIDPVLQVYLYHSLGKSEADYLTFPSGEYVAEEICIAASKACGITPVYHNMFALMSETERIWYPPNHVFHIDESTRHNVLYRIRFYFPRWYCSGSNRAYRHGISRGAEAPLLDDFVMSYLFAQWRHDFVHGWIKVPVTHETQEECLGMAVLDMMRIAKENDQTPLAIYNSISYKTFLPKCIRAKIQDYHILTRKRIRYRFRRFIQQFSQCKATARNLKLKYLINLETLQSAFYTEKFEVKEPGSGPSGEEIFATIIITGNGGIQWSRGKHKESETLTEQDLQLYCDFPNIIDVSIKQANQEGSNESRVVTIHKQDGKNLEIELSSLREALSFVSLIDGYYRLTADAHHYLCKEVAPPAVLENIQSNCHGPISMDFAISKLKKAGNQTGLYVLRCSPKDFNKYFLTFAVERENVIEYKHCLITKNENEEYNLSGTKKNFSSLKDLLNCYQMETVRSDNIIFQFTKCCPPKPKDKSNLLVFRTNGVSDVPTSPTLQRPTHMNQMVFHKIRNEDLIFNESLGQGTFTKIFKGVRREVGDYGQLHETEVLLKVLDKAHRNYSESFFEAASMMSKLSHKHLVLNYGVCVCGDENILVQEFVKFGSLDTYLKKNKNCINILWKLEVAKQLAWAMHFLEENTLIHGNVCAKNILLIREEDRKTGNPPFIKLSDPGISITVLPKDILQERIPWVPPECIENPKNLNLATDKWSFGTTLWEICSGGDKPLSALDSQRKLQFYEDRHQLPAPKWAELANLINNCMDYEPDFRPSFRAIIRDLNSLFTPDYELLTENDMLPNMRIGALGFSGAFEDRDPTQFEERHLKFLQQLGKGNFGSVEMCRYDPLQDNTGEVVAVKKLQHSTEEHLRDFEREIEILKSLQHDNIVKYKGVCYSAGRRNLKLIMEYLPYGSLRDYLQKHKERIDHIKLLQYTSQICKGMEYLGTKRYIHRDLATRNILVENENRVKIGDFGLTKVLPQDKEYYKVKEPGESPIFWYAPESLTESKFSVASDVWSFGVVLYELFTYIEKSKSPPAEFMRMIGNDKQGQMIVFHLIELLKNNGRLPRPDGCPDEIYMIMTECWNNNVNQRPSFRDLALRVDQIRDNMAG

MAPK1 (human) = MAPK1 (human) (UniProt P28482)
RIOK3 (human) = RIOK3 (human) (UniProt O14730)
STK4 (human) = STK4 (human) (UniProt Q13043)
Chain of STK4 (human) (Q13043 whole entry, looked up): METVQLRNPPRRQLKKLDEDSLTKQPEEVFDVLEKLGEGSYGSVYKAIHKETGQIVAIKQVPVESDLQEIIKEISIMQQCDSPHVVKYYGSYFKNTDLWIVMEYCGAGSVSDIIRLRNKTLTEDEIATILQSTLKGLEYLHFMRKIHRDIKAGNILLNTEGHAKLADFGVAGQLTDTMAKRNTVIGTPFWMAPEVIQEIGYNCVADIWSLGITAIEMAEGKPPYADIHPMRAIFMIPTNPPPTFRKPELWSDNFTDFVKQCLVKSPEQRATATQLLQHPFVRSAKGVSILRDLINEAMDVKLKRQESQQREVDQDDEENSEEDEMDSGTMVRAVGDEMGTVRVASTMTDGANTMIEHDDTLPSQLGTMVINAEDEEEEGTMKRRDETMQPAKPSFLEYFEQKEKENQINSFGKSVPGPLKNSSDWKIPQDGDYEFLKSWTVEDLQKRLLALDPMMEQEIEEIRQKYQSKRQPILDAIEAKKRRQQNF

MAPK6 (human) = MAPK6 (human) (UniProt Q16659)
Chain of MAPK6 (human) (Q16659 whole entry, looked up): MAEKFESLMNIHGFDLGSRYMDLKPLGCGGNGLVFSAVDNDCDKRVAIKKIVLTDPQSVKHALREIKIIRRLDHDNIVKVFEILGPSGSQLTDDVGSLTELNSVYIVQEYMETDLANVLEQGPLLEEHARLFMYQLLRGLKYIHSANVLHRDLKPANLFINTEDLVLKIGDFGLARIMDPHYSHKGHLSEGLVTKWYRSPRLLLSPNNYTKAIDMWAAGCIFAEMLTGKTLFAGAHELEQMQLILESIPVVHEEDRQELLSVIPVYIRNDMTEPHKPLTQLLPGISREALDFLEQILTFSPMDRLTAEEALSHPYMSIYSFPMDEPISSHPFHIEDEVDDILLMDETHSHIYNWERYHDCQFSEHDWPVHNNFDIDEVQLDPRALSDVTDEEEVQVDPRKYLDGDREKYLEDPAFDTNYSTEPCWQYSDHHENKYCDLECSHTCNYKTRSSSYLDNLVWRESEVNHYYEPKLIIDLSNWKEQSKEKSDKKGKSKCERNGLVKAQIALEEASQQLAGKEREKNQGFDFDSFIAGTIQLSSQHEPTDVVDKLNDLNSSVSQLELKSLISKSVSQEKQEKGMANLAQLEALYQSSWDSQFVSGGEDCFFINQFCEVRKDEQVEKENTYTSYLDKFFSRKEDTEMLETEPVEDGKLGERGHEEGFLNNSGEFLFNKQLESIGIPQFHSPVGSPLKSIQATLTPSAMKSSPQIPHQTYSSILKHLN

FGR (human) = FGR (human) (UniProt P09769)
CAMK1D (human) = CAMK1D (human) (UniProt Q8IU85)
Chain of CAMK1D (human) (Q8IU85 whole entry, looked up): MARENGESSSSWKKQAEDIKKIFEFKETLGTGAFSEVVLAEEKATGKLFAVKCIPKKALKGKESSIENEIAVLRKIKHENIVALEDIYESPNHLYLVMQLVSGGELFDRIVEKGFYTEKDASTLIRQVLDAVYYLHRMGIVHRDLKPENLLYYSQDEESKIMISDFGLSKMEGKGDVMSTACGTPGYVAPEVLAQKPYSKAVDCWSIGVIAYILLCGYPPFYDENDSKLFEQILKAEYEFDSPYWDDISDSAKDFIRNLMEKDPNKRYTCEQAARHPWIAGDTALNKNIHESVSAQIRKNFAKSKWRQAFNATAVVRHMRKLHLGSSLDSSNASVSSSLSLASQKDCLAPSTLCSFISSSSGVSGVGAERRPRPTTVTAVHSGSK

MAP3K4 (human) = MAP3K4 (human) (UniProt Q9Y6R4)
ADCK3 (human) = ADCK3 (human) (UniProt Q8NI60)
CDC42BPG (human) = CDC42BPG (human) (UniProt Q6DT37)
RPS6KA5 KD2 (human) = RPS6KA5 KD2 (human) (UniProt O75582)
Chain of RPS6KA5 KD2 (human) (O75582 whole entry, looked up): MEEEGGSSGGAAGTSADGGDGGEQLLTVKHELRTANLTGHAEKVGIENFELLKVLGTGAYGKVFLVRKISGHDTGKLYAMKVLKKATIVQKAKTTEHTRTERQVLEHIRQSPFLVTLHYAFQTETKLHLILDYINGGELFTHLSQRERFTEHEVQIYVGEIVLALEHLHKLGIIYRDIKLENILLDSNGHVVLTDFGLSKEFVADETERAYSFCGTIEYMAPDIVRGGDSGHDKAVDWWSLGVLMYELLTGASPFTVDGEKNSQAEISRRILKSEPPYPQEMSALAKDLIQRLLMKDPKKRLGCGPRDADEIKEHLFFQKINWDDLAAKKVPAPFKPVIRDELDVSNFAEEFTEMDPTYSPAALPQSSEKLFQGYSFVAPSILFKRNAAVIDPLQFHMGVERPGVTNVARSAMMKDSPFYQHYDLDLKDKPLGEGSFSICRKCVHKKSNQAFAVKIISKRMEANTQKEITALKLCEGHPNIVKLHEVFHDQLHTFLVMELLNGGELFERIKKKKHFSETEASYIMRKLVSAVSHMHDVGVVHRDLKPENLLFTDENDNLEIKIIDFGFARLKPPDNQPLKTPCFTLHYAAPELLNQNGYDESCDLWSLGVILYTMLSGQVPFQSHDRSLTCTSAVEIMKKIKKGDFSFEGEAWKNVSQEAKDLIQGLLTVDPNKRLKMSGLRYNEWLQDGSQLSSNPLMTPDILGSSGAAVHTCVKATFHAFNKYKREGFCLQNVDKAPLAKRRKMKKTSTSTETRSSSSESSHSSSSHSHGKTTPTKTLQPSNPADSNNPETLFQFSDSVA

ACVR1 (human) = ACVR1 (human) (UniProt Q04771)
Chain of ACVR1 (human) (Q04771 whole entry, looked up): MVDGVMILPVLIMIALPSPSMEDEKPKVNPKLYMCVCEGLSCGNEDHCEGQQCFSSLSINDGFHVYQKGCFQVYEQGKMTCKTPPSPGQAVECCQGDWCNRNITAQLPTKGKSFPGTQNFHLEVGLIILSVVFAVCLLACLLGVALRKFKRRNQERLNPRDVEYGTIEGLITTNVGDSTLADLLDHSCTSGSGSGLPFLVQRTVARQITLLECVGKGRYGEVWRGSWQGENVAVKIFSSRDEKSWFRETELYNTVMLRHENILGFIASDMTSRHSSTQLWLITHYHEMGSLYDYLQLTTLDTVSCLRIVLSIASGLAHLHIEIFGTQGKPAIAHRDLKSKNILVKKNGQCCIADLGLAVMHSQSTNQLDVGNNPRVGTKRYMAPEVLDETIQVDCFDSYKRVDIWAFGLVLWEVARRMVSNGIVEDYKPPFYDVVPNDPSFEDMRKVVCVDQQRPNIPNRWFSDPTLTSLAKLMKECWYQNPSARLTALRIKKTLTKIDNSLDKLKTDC

AKT2 (human) = AKT2 (human) (UniProt P31751)
[3] = target: JAK1 JH1 catalytic (human) (UniProt P23458)
MAP3K3 (human) = MAP3K3 (human) (UniProt Q99759)
WEE2 (human) = WEE2 (human) (UniProt P0C1S8)

Structure (SMILES) | kinase still bound, per cent of control (NTRK2 (human)) [%] | kinase still bound, per cent of control (EPHA5 (human)) [%] | kinase still bound, per cent of control (RPS6KA6 KD2 (human)) [%] | kinase still bound, per cent of control [1] [%] | kinase still bound, per cent of control (PRKCQ (human)) [%] | kinase still bound, per cent of control (MYLK3 (human)) [%] | kinase still bound, per cent of control (CLK3 (human)) [%] | kinase still bound, per cent of control (MARK1 (human)) [%] | kinase still bound, per cent of control (MYO3A (human)) [%] | kinase still bound, per cent of control (NEK1 (human)) [%] | kinase still bound, per cent of control (PIM3 (human)) [%] | kinase still bound, per cent of control (CAMK2A (human)) [%] | kinase still bound, per cent of control (STK32B (human)) [%] | kinase still bound, per cent of control (PRKACA (human)) [%] | kinase still bound, per cent of control [2] [%] | kinase still bound, per cent of control (MAPK1 (human)) [%] | kinase still bound, per cent of control (RIOK3 (human)) [%] | kinase still bound, per cent of control (STK4 (human)) [%] | kinase still bound, per cent of control (MAPK6 (human)) [%] | kinase still bound, per cent of control (FGR (human)) [%] | further results
CCN(CC)CCCCNc1ncc2cc(-c3cc(OC)cc(OC)c3)c(NC(=O)NC(C)(C)C)nc2n1 | 100 | 100 | 100 | 100 | 100 | 100 | 100 | 100 | 100 | 100 | 100 | 100 | 100 | 100 | 100 | 100 | 100 | 100 | 100 | 100 | kinase still bound, per cent of control (PTK2B (human)): 100%; kinase still bound, per cent of control (CAMK1D (human)): 100%; kinase still bound, per cent of control (MAP3K4 (human)): 100%; kinase still bound, per cent of control (ADCK3 (human)): 100%; kinase still bound, per cent of control (CDC42BPG (human)): 100%; kinase still bound, per cent of control (RPS6KA5 KD2 (human)): 100%; kinase still bound, per cent of control (ACVR1 (human)): 100%; kinase still bound, per cent of control (AKT2 (human)): 100%
Cc1n[nH]c2ccc(-c3cncc(OC[C@@H](N)Cc4c[nH]c5ccccc45)c3)cc12 | 100 | 100 | 100 | 100 | 0 | 2.8 | 0 | 100 | 100 | 100 | 0.75 | 0.7 | 100 | 0.85 | 100 | 100 | 2.7 | 100 | 100 | 100 | kinase still bound, per cent of control [3]: 100%; kinase still bound, per cent of control (MAP3K3 (human)): 29%; kinase still bound, per cent of control (CAMK1D (human)): 11%; kinase still bound, per cent of control (WEE2 (human)): 100%; kinase still bound, per cent of control (MAP3K4 (human)): 100%; kinase still bound, per cent of control (ADCK3 (human)): 100%; kinase still bound, per cent of control (CDC42BPG (human)): 0.8%; kinase still bound, per cent of control (RPS6KA5 KD2 (human)): 17%; kinase still bound, per cent of control (ACVR1 (human)): 100%
CNC(=O)c1ccc(Nc2cc(Nc3ccccc3S(=O)(=O)C(C)C)c3cc[nH]c3n2)nc1 | 0 | 100 | 100 | 100 | 24 | 100 | 2.8 | 26 | 100 | 100 | 100 | 100 | 100 | 100 | 1.6 | 22 | 2.9 | 4.2 | 100 | 5 | kinase still bound, per cent of control (PTK2B (human)): 0.1%; kinase still bound, per cent of control [3]: 2%; kinase still bound, per cent of control (MAP3K3 (human)): 4.8%; kinase still bound, per cent of control (CAMK1D (human)): 100%; kinase still bound, per cent of control (WEE2 (human)): 100%; kinase still bound, per cent of control (MAP3K4 (human)): 100%; kinase still bound, per cent of control (ADCK3 (human)): 100%; kinase still bound, per cent of control (CDC42BPG (human)): 100%; kinase still bound, per cent of control (RPS6KA5 KD2 (human)): 100%; kinase still bound, per cent of control (ACVR1 (human)): 100%; kinase still bound, per cent of control (AKT2 (human)): 100%
C=CC(=O)Nc1ccc(CN(C(=O)Nc2c(Cl)c(OC)cc(OC)c2Cl)c2cc(Nc3ccc(N4CCN(C)CC4)cc3)ncn2)cc1 | 100 | 100 | 100 | 100 | 100 | 100 | 100 | 100 | 100 | 100 | 100 | 100 | 100 | 100 | 100 | 100 | 100 | 100 | 100 | 7 | kinase still bound, per cent of control (PTK2B (human)): 100%; kinase still bound, per cent of control [3]: 100%; kinase still bound, per cent of control (MAP3K3 (human)): 5.8%; kinase still bound, per cent of control (CAMK1D (human)): 100%; kinase still bound, per cent of control (WEE2 (human)): 100%; kinase still bound, per cent of control (MAP3K4 (human)): 10%; kinase still bound, per cent of control (ADCK3 (human)): 100%; kinase still bound, per cent of control (CDC42BPG (human)): 100%; kinase still bound, per cent of control (RPS6KA5 KD2 (human)): 100%; kinase still bound, per cent of control (ACVR1 (human)): 100%; kinase still bound, per cent of control (AKT2 (human)): 100%
